Numbered stars: 1 amine (or outer) side, 2 acyl side, 3 side chain; on linkers, the order of the positions; unused ones are H or OH. Bridge positions count the residues as written; N and C are the ends. Square brackets hold non-standard residues; d marks the D form. Peptide text beside a SMILES is read from it. X1 = N=C(N)NCCC[C@H](N[*:1])C(=O)c1nc2ccc(C(=O)[*:2])cc2s1
What was measured:
thrombin = thrombin (Homo sapiens, UniProt P00734); assay: Chromogenic kinetic enzyme assay, thrombin; format: biochemical
Factor Xa = Factor Xa (Homo sapiens, UniProt P00742); assay: Chromogenic kinetic enzyme assay, Factor Xa; format: biochemical
[1] = In vitro stability in mouse plasma; format: in vitro ADME
[2] = biological target: T1, recombinant serine protease domain of HGFA (Homo sapiens, UniProt Q04756); assay: Fluorescent kinetic enzyme inhibition assay, HGFA; format: biochemical
T1 sequence (Q04756 408-646 limits assumed): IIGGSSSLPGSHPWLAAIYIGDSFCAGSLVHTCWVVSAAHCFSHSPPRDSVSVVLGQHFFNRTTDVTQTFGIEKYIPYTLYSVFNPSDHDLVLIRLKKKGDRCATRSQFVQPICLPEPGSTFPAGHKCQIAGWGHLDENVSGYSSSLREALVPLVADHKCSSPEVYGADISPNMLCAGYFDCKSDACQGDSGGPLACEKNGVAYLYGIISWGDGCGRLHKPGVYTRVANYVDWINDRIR

[3] = In vitro stability in human plasma; format: in vitro ADME
matriptase = biological target: T2, matriptase (Homo sapiens, UniProt Q9Y5Y6); assay: Fluorescent kinetic enzyme inhibition assay, matriptase; format: biochemical
T2 sequence (Q9Y5Y6 615-855 limits assumed): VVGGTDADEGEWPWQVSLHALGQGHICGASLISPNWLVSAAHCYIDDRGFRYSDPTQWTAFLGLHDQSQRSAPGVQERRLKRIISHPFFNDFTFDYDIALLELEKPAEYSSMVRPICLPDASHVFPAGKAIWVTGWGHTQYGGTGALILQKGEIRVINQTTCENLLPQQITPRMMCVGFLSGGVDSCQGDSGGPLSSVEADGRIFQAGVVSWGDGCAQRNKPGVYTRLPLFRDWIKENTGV

Chain of Factor Xa (P00742 235-488 limits assumed): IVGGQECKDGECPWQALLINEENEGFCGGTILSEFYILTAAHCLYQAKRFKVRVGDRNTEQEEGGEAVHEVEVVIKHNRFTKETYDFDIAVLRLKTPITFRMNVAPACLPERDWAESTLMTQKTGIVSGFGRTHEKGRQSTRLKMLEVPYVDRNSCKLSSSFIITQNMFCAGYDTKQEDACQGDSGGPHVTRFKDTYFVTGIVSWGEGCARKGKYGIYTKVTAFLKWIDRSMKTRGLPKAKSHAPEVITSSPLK
Chain of Factor Xa (P00742 41-179 partner limits assumed): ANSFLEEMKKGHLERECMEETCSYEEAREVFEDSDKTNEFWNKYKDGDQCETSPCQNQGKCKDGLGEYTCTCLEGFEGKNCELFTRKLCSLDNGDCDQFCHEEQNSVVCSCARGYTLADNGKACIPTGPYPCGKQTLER

`CC(=O)N[C@H]1CC(=O)NCCCC[C@@H](C(=O)N[C@@H](CCCNC(=N)N)C(=O)c2nc3ccc(C(=O)N[C@H](C(N)=O)C(C)C)cc3s2)NC(=O)[C@H](CC(C)C)NC1=O` [Compound 20, Ac-cyclo(DLK)-R- ketobenzothiazole-V-amide] (Ac-DLK[X1]V-NH2; lactam 1-3) gave an IC50 (thrombin) of 34 nM, an IC50 (Factor Xa) of 118 nM and a half-life [1] of over 4.82 h. The IC50 [2] was 5380 nM, the half-life [3] was over 4.82 h and the IC50 (matriptase) was 11 nM.
